According to article PMC10547238, “Discovery of Potent Tetrazole Free Fatty Acid Receptor 2 Antagonists” (Journal of Medicinal Chemistry, 2023):
“And” between values parts separate entries of the source, which are not always exact repeats. Equal entries are not always repeated. Where two headings read alike, the source gives them in different places.

Tests used:
[1] = target: T1, hFFA2 (Homo sapiens, UniProt O15552); test: cAMP assay, antagonist mode, Flp-In T-Rex 293 cells expressing hFFA2-eYFP; type: cell-based; conditions: for cAMP pIC50: hFFA2, antagonist mode, propionate at EC80, mean ± SEM, three or more experiments; for LLEcAMP: pIC50, cAMP – ClogP; for LLEcAMP-logD: pIC50, cAMP – logD7.4
T1 construct: expressed in transfected cells; host or cells: Flp-In T-Rex 293 cells, doxycycline-induced
T1 sequence (O15552 1-330): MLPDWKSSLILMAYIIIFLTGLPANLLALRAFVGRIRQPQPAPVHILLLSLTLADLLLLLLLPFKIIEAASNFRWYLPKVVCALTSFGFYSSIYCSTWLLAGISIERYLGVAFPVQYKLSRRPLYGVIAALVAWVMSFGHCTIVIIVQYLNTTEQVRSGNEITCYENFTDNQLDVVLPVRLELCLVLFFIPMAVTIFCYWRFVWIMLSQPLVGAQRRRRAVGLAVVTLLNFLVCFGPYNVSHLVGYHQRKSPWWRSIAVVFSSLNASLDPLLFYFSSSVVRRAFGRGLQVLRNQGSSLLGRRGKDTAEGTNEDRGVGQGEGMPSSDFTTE
Description: The activity of the compounds on FFA2 was evaluated in two different functional antagonist assays, both using propionate at EC80 as the agonist. The GTPγS assay reflects receptor activation by directly assessing G protein recruitment, whereas the cAMP assay, performed in whole cells, reflects a physiologically relevant downstream second messenger.
(§1) The hFFA2-eYFP and hFFA3-eYFP Flp-In T-Rex 293 cell lines were maintained in Dulbecco’s modified Eagle mMedium (DMEM, ThermoFisher #11965092) supplemented with 10% (v/v) fetal bovine serum, 100 U/mL penicillin, 100 μg/mL streptomycin, 5 μg/mL blasticidin S, and 200 μg/mL hygromycin B and incubated at 37 °C and 5% CO2 in a humidified incubator. Cells were passaged at 70–80% confluency.
To determine the compound’s ability to activate or inhibit the Gi-coupled FFA2 or FFA3, intracellular cAMP concentrations were determined using Flp-In T-Rex293 cells induced to express hFFA2-eYFP or hFFA3-eYFP. Experiments were carried out using a homogeneous time-resolved FRET-based detection kit (CisBio, PerkinElmer #62AM9PEC) according to the manufacturer’s protocol. The day before the assay, 10,000 cells/well were plated in DMEM supplemented with penicillin/streptomycin (100 units/mL and […], respectively), 5 μg/mL blasticidin S, and 200 μg/mL hygromycin B in 96-well cell culture microplates (Greiner Bio-One) and induced to express hFFA2-eYFP or hFFA3-YFP with 100 ng/mL doxycycline.
In antagonist mode, the cells were pre-incubated for 20 min with antagonist test compounds in HBSS together with 50 μM IBMX at rt. Then, the cells were further incubated for 25 min at rt in HBSS with the agonist compound, sodium propionate at EC80 (51.4 μM for FFA2, 13.2 μM for FFA3), and 3 μM forskolin. Reactions were stopped, and the output was measured with an Envision plate reader using a time-resolved fluorescence protocol, measuring the light emission at 620 and 665 nm. All analyses were performed in triplicate and analyzed using GraphPad Prism (version 9).

[2] = Lipophilicity (logD7.4), octanol/PBS7.4 shake flask; type: physicochemical; conditions: 1-octanol/PBS7.4, pH 7.4; mean of two independent experiments
Description: The assay was performed in duplicates essentially as previously described.[58] A glass vial with a screw cap (8 mL) was charged with the test compound (40 μL, 10 mM in DMSO), PBS7.4 (0.01 M, 1980 μL), and 1-octanol (1980 μL). The vial was capped and sealed with a Parafilm and shaken at 700 rpm using an IKA KS 125 basic shaker for 24 h at 25 °C. The Parafilm was removed, and the sample was allowed to equilibrate for 1 h before analysis. One hundred microliters of the octanol phase was withdrawn and diluted 1:10 with MeOH (+0.1% TFA)/MilliQ water (4:1, v/v) and analyzed by HPLC. The interface was removed, and the PBS7.4 phase analyzed directly by HPLC. All analysis was performed in duplicates, and log D7.4 values were calculated from the peak areas (mAU·min) and adjusted for difference in injection volume and concentration-absorption effects from the solvents, using two calibration points per compound per solvent, and dilution of the octanol phase.

[3] = target: T2, hFFA3 (Homo sapiens, UniProt O14843); test: cAMP assay, Flp-In T-Rex 293 cells expressing hFFA3-eYFP; type: cell-based; conditions: at 10 μM
T2 construct: expressed in transfected cells; host or cells: Flp-In T-Rex 293 cells, doxycycline-induced
T2 sequence (O14843 1-346): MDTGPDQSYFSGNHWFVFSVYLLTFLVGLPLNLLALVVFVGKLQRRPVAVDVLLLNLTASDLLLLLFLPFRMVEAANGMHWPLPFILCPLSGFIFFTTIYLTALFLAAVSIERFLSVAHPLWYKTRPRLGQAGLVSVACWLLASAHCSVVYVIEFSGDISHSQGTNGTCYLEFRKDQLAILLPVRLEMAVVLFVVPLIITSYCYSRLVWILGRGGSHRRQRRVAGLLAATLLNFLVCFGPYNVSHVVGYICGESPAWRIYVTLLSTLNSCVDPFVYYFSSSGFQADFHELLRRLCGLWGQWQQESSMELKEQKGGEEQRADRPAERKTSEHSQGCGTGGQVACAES
Description: as §1
To determine the compound’s ability to activate or inhibit the Gi-coupled FFA2 or FFA3, intracellular cAMP concentrations were determined using Flp-In T-Rex293 cells induced to express hFFA2-eYFP or hFFA3-eYFP. […]
In agonist mode, the next day, the agonist was added in Hank’s balanced salt solution supplemented with 20 mM HEPES, 1 mM MgCl2, and 1 mM CaCl2 at pH 7.4 (HBSS) together with 50 μM 3-isobutyl-1-methylxanthine (IBMX) and 3 μM forskolin. After 25 min pf incubation at rt, agonist-induced intracellular cAMP production was assessed by stopping the reactions and measuring the output with an Envision plate reader using a time-resolved fluorescence protocol, measuring the light emission at 620 and 665 nm.
In antagonist mode, the cells were pre-incubated for 20 min with antagonist test compounds in HBSS together with 50 μM IBMX at rt. […] All analyses were performed in triplicate and analyzed using GraphPad Prism (version 9).

| cAMP pIC50 [1] | LLEcAMP [1] | LLEcAMP-logD [1] | logD at 25 h [2] | IC50 ([1]; inhibition of propionate at FFA2, read-out: IC50 in cAMP assay) | activity on FFA3 [3] | IC50 ([1]; supplementary CSV, read-out: hFFA2 cAMP (pIC50) (converted)) | increase in potency ([1]; vs 16s, assay not specified) | Compound |
| --- | --- | --- | --- | --- | --- | --- | --- | --- |
| 6.96 ± 0.07 | 2.75 | 5.57 | 1.39 ± 0.01 | – | – | – | – | O=C(O)C[C@H](Cc1ccc(C(F)(F)F)cc1)NC(=O)Cc1cccc(Cl)c1 [Compound 3, reference compound] |
| 8.35 ± 0.15 | 5.87 | 7.5 and 7.51 | 0.84 ± 0.01 | 3 to 4 nM and 4 nM | devoid of activity | – | – | COc1cccc(CC(=O)N[C@@H](Cc2ccc(C(F)(F)F)cc2)Cc2nnn[nH]2)c1 [Compound 16l, (S)-N-(1-(1H-Tetrazol-5-yl)-3-(4-(trifluoromethyl)phenyl)propan-2-yl)-2-(3-methoxyphenyl)acetamide] |
| 7.83 ± 0.14 | 5.90 | 7.1 and 7.12 | 0.71 ± 0.06 | – | devoid of activity | 10.2 nM | 9 fold | O=C(Cc1cncc(Br)c1)N[C@@H](Cc1ccc(C(F)(F)F)cc1)Cc1nnn[nH]1 [Compound 16w, (S)-3-(2-((1-(1H-Tetrazol-5-yl)-3-(4-(trifluoromethyl)phenyl)propan-2-yl)amino)-2-oxoethyl)-5-bromopyridin-1-ium 2,2,2-trifluoroacetate] |
